Here are results for one compound from PMC12235220, “Cell‐Penetrating Peptide‐Based Triple Nanocomplex Enables Efficient Nuclear Gene Delivery in Chlamydomonas reinhardtii” (Biotechnology and Bioengineering, 2025).

The test system of the assay is C. reinhardtii cells. Nature of the assay: Cellular uptake mechanism of triple nanocomplexes with the endocytosis inhibitor wortmannin. It counts as cell-based, Chlamydomonas reinhardtii. Particulars: wortmannin 33 µM pretreatment 1 h, then pVEC-R6A/Cy3-labeled DNA/SV40 nanocomplex 1 h at 25°C; control TAP with 5% DMSO; microplate reader. How it is done:
To evaluate the cellular uptake mechanism of the triple nanocomplexes in microalgae, a fluorescence‐based assay was performed with wortmannin (Sigma‐Aldrich, USA) to determine the potential involvement of endocytosis in the process. A volume of 100 µL of C. reinhardtii cells (1.5 × 10^7 cells mL^−1) per well was seeded in a 96‐well plate with wortmannin at a final concentration of 33 µM. Cells treated with TAP medium containing 5% dimethyl sulfoxide were used as controls. […] Finally, the Cy3 fluorescence intensity of the samples was measured at 532 nm using a TECAN microplate reader (Bionics, Korea).

On to `COC[C@H]1OC(=O)c2coc3c2[C@@]1(C)C1=C(C3=O)[C@@H]2CCC(=O)[C@@]2(C)C[C@H]1OC(C)=O` [wortmannin], for which the “Reduction of normalized Cy3/chlorophyll a level compared to control” value amounted to 50%.
